Columns and labels:
Assay type in all cases: cell-based, Pseudomonas fluorescens
BM07-ΔphaZ [1] = assay: PHA production, one-step cultivation on 50 mM fructose and 5 mM 11-POU; settings: 1 mM salicylic acid, 50 mM fructose + 5 mM 11-POU; for Dry cell weight / PHA (aliphatic monomer) / PHA (aromatic monomer) / Polyester content: 30° C.
Description: (§1) In the main cultures, 500 μl of the culture grown in NR or LB medium was transferred to 50 ml M1 mineral-salts medium containing 50 mM fructose, 5 mM 11-POU, 0 or 1 mM salicylic acid and 1.0 g/L ammonium sulfate in a 250 mL flask and cultivated at 30° C. Salicylic acid was dissolved by adding sodium hydroxide and the pH of the solution was adjusted to 7.2 before adding to medium. Cell growth was determined by measuring dry cell weight (DCW). The remaining fructose was measured using DNS method and the remaining 11-POU or other carboxylic acids were determined by gas chromatography. The cells were isolated by centrifuging (10,000×g, 10 min), the cell suspension was washed with methanol and dried under vacuum at room temperature for 48 hours. The remaining NH4^+ was measured using Nessler's reagent. In the time-course profiling experiments, a set of culture flasks equal to the planned sampling times (every 4 or 6 h) was prepared and cultivated under the same culture condition. One of the flasks was withdrawn every scheduled time and the medium (50 ml) was centrifuged and analyzed.
(§2) The monomer composition of the PHA in cells was determined by analyzing the methyl esters, recovered from a sulfuric acid/methanol treatment of the cells, using a Hewlett-Packard HP5890 Series II gas chromatograph equipped with a HP-1 capillary column and a flame ionization detector. The gas chromatography (GC) run conditions were as follows: initial temperature of 80° C. for 2 min; heating rate of 8° C./min; final temperature of 250° C. for 6.75 min; carrier (He) flow rate of 3 ml/min; injector temperature of 230° C.; and detector temperature of 280° C. The standardization of each GC peak was made against the PHA of known structure characterized by quantitative NMR analyses

[2] = system: P. fluorescens BM07 wild-type; assay: as above; settings: 1 mM salicylic acid, 50 mM fructose + 5 mM 11-POU; for Dry cell weight / PHA (aliphatic monomer) / PHA (aromatic monomer) / Polyester content: 30° C.
Description: as §1, §2

BM07 (pBBR-phaZ) = assay: PHA production on 50 mM fructose/5 mM 11-POU in PhaZ over-expressed strain; settings: 1 mM salicylic acid
Description: as §1, with “In the time-course profiling experiments, a set of culture flasks equal to the planned sampling times (every 4 or 6 h) was prepared and cultivated under the same culture condition.” left out
The monomer composition of the PHA in cells was determined by analyzing the methyl esters, recovered from a sulfuric acid/methanol treatment of the cells, using a Hewlett-Packard HP5890 Series II gas chromatograph equipped with a HP-1 capillary column and a flame ionization detector. […] The standardization of each GC peak was made against the PHA of known structure characterized by quantitative NMR analyses

BM07 wild-type = assay: Aromatic PHA production, one-step cultivation on 50 mM fructose and 10 mM 5-PV or 6PC; settings: 1 mM salicylic acid, 30° C.
Description: as §1, with “In the main cultures, 500 μl of the culture grown in NR or LB medium was transferred to 50 ml M1 mineral-salts medium containing 50 mM fructose, 5 mM 11-POU, 0 or 1 mM salicylic acid and 1.0 g/L ammonium sulfate in a 250 mL flask and cultivated at 30° C.” left out
as §2

BM07-ΔphaZ [3] = assay: as above; settings: 1 mM salicylic acid, 30° C., culture time 72 h
Description: as §1, with “In the main cultures, 500 μl of the culture grown in NR or LB medium was transferred to 50 ml M1 mineral-salts medium containing 50 mM fructose, 5 mM 11-POU, 0 or 1 mM salicylic acid and 1.0 g/L ammonium sulfate in a 250 mL flask and cultivated at 30° C.” left out
as §2

[4] = 50 mM fructose + 10 mM 5PV, culture time 72 h
[5] = 50 mM fructose + 10 mM 6PC, culture time 60 h

O=C(O)c1ccccc1O [Salicylic acid, salicylic acid]
Content of aliphatic MCL-monomer-units, share of the total PHA (BM07-ΔphaZ [1]): ~10%
Effect on accumulation of aromatic PHA from 11-POU (BM07-ΔphaZ [1]): significantly retarded the accumulation of aromatic PHA from 11-POU
Effect on cell growth (BM07-ΔphaZ [1]): did not significantly delay the cell growth
Time of maximum PHA accumulation (BM07-ΔphaZ [1]): around 70 hours
Time of maximum cell growth (BM07-ΔphaZ [1]): 50 to 60 h
Dry cell weight (BM07-ΔphaZ [1]; culture time 72 h): 1.68 ± 0.11 g/L
PHA (aliphatic monomer) (BM07-ΔphaZ [1]; culture time 72 h): 4.8 ± 0.3 wt. %
PHA (aromatic monomer) (BM07-ΔphaZ [1]; culture time 72 h): 44.1 ± 1.6 wt. %
Polyester content (BM07-ΔphaZ [1]; culture time 72 h): 48.9 ± 1.9 wt. %
Dry cell weight (BM07-ΔphaZ [1]; culture time 96 h): 1.72 ± 0.09 g/L
PHA (aliphatic monomer) (BM07-ΔphaZ [1]; culture time 96 h): 4.3 ± 0.4 wt. %
PHA (aromatic monomer) (BM07-ΔphaZ [1]; culture time 96 h): 48.7 ± 1.4 wt. %
Polyester content (BM07-ΔphaZ [1]; culture time 96 h): 53.0 ± 1.8 wt. %
Incorporation of aliphatic monomer-units, share of the total PHA content [2]: ~10%
Dry cell weight ([2]; culture time 48 h): 1.36 ± 0.10 g/L
PHA (aliphatic monomer) ([2]; culture time 48 h): 3.1 ± 0.2 wt. %
PHA (aromatic monomer) ([2]; culture time 48 h): 20.8 ± 0.9 wt. %
Polyester content ([2]; culture time 48 h): 23.9 ± 1.1 wt. %
Dry cell weight ([2]; culture time 72 h): 1.78 ± 0.06 g/L
PHA (aliphatic monomer) ([2]; culture time 72 h): 2.5 ± 0.5 wt. %
PHA (aromatic monomer) ([2]; culture time 72 h): 26.8 ± 1.6 wt. %
Polyester content ([2]; culture time 72 h): 29.3 ± 2.1 wt. %
Incorporation of aliphatic monomer-units, share of the total PHA content at the maximum accumulation (BM07 (pBBR-phaZ)): < 4%
Aromatic PHA content (BM07 wild-type; [4]): 34.2 ± 1.5 wt. %
Dry cell weight (BM07 wild-type; [4]): 1.98 ± 0.08 g/L
Aromatic PHA content (BM07 wild-type; [5]): 32.8 ± 1.7 wt. %
Dry cell weight (BM07 wild-type; [5]): 1.78 ± 0.13 g/L
Aromatic PHA content (BM07-ΔphaZ [3]; 50 mM fructose + 10 mM 5PV): 49.9 ± 1.3 wt. %
Dry cell weight (BM07-ΔphaZ [3]; 50 mM fructose + 10 mM 5PV): 2.10 ± 0.06 g/L
Aromatic PHA content (BM07-ΔphaZ [3]; 50 mM fructose + 10 mM 6PC): 35.1 ± 1.2 wt. %
Dry cell weight (BM07-ΔphaZ [3]; 50 mM fructose + 10 mM 6PC): 1.72 ± 0.08 g/L
